# Laboratory results as given in the supplement of paper PMC10307832.
# Columns and labels:
# Assay in all cases: relative viability (nuclei count vs DMSO), 5 days (fraction); higher = more cells survive
# AZD5582 + OSI-027 = compound: C[C@@H](C(=O)N[C@@H](C1CCCCC1)C(=O)N2CCC[C@H]2C(=O)N[C@@H]3[C@@H](CC4=CC=CC=C34)OCC#CC#CCO[C@@H]5CC6=CC=CC=C6[C@@H]5NC(=O)[C@@H]7CCCN7C(=O)[C@H](C8CCCCC8)NC(=O)[C@H](C)NC)NC [AZD5582] + COc1cccc2cc(-c3nc([C@H]4CC[C@H](C(=O)O)CC4)n4ncnc(N)c34)[nH]c12 [OSI-027] (partner 0.5 µM)
# In short: (§1)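 Lung cancer cell lines were seeded in 1536-well plates and dosed by pin tool the next day, with either a single drug or a fixed anchor-drug dose combined with five library-drug doses (not always all listed) spaced in √10 steps. Five days later, one step fixed the cells and stained their nuclei (final 0.05% Triton X-100, 1% formaldehyde, 1 ug/ml Hoechst), and nuclei were counted on 4× images. Relative viability is the nuclei count in treated wells divided by the count in vehicle wells, and each value is the median of duplicate plates.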
# AZD5582 + Crizotinib = compound: C[C@@H](C(=O)N[C@@H](C1CCCCC1)C(=O)N2CCC[C@H]2C(=O)N[C@@H]3[C@@H](CC4=CC=CC=C34)OCC#CC#CCO[C@@H]5CC6=CC=CC=C6[C@@H]5NC(=O)[C@@H]7CCCN7C(=O)[C@H](C8CCCCC8)NC(=O)[C@H](C)NC)NC [AZD5582] + C[C@@H](Oc1cc(-c2cnn(C3CCNCC3)c2)cnc1N)c1c(Cl)ccc(F)c1Cl [Crizotinib] (partner 1 µM)
# In short: as §1
# AZD5582 + Decitabine = compound: C[C@@H](C(=O)N[C@@H](C1CCCCC1)C(=O)N2CCC[C@H]2C(=O)N[C@@H]3[C@@H](CC4=CC=CC=C34)OCC#CC#CCO[C@@H]5CC6=CC=CC=C6[C@@H]5NC(=O)[C@@H]7CCCN7C(=O)[C@H](C8CCCCC8)NC(=O)[C@H](C)NC)NC [AZD5582] + Nc1ncn([C@H]2C[C@H](O)[C@@H](CO)O2)c(=O)n1 [Decitabine] (partner 2 µM)
# In short: as §1
# Temozolomide + OSI-027 = compound: Cn1nnc2c(C(N)=O)ncn2c1=O [Temozolomide] + COc1cccc2cc(-c3nc([C@H]4CC[C@H](C(=O)O)CC4)n4ncnc(N)c34)[nH]c12 [OSI-027] (partner 0.5 µM)
# In short: as §1
Cell Line,relative viability (AZD5582 + OSI-027; first compound 0.001581 µM),relative viability (AZD5582 + OSI-027; first compound 0.005 µM),relative viability (AZD5582 + OSI-027; first compound 0.01581 µM),relative viability (AZD5582 + OSI-027; first compound 0.05 µM),relative viability (AZD5582 + Crizotinib; first compound 0.001581 µM),relative viability (AZD5582 + Crizotinib; first compound 0.005 µM),relative viability (AZD5582 + Crizotinib; first compound 0.01581 µM),relative viability (AZD5582 + Crizotinib; first compound 0.05 µM),relative viability (AZD5582 + Decitabine; first compound 0.001581 µM),relative viability (AZD5582 + Decitabine; first compound 0.005 µM),relative viability (AZD5582 + Decitabine; first compound 0.01581 µM),relative viability (AZD5582 + Decitabine; first compound 0.05 µM),relative viability (Temozolomide + OSI-027; first compound 0.2 µM),relative viability (Temozolomide + OSI-027; first compound 0.6325 µM),relative viability (Temozolomide + OSI-027; first compound 2 µM),relative viability (Temozolomide + OSI-027; first compound 6.325 µM),relative viability (Temozolomide + OSI-027; first compound 20 µM)
NCI-H727,0.51,0.473,0.508,0.529,0.762,0.896,0.749,0.721,0.965,0.856,0.801,0.921,0.638,0.779,0.712,0.493,0.534
NCI-H2023,0.286,0.44,0.374,0.368,0.567,0.635,0.576,0.703,0.217,0.2,0.243,0.204,0.375,0.39,0.475,0.329,0.413
COR-L23,0.799,0.721,0.768,0.756,0.539,0.682,0.629,0.796,0.476,0.441,0.445,0.481,1.01,0.714,0.766,0.814,0.652
EMC-BAC-2,0.295,0.341,0.323,0.273,0.637,0.551,0.682,0.236,0.892,0.97,0.887,0.841,0.454,0.355,0.369,0.396,0.419
A-427,0.341,0.44,0.414,0.31,0.623,0.751,0.97,0.618,0.496,0.582,0.573,0.53,0.481,0.4,0.507,0.365,0.299
NCI-H2009,0.536,0.73,0.448,0.48,1.01,1.03,0.993,1.02,0.4,0.355,0.412,0.363,0.82,0.597,0.682,0.699,0.698
NCI-H358,0.677,0.962,0.821,0.777,0.505,0.676,0.704,0.455,0.199,0.241,0.245,0.215,0.437,0.795,0.697,0.689,0.583
NCI-H23,0.403,0.45,0.245,0.21,0.328,0.316,0.498,0.299,0.334,0.293,0.27,0.278,0.547,0.682,0.565,0.59,0.461
NCI-H2085,0.499,0.902,0.578,0.367,0.732,0.874,0.854,0.754,0.527,0.644,0.608,0.545,0.537,0.886,1.05,0.734,0.577
NCI-H1755,0.567,0.673,0.58,0.659,0.793,0.846,0.86,0.916,0.709,0.761,0.694,0.725,0.76,0.758,0.743,0.673,0.637
NCI-H1666,0.65,0.696,0.808,0.874,0.662,0.817,1.01,0.808,0.658,0.73,0.626,0.704,0.81,0.822,0.789,0.65,0.672
UMC-11,0.469,0.53,0.476,0.454,0.534,0.671,0.578,0.493,0.637,0.638,0.731,0.71,0.554,0.469,0.566,0.467,0.447
HCC-78,0.382,0.406,0.33,0.311,0.294,0.353,0.312,0.426,0.786,0.703,0.688,0.585,0.347,0.349,0.362,0.383,0.349
NCI-H1944,0.369,0.428,0.412,0.446,0.914,1.07,1.09,1.07,0.432,0.485,0.494,0.457,0.428,0.378,0.474,0.377,0.382
NCI-H1651,0.667,0.813,,0.983,0.85,0.91,0.854,0.939,0.572,0.571,0.559,0.654,0.724,0.727,0.657,0.636,0.636
NCI-H2347,0.335,0.388,0.364,0.456,0.657,0.601,0.509,0.701,0.701,0.624,0.668,0.469,0.338,0.428,0.501,0.376,0.432
HOP-62,0.727,0.837,0.83,0.83,0.781,1.05,1,0.875,0.213,0.209,0.247,0.213,1.06,0.854,0.846,0.773,0.908
NCI-H1993,0.503,0.541,0.547,0.541,0.824,0.826,0.819,0.915,0.634,0.7,0.603,0.613,0.522,0.556,0.536,0.535,0.621
HCC-15,0.555,0.617,0.504,0.636,0.646,0.536,0.754,0.455,0.534,0.559,0.602,0.418,0.778,0.68,0.683,0.695,0.669
NCI-H1437,0.787,0.893,0.77,0.94,0.856,0.713,0.858,0.957,0.543,0.554,0.595,0.565,0.863,0.877,0.952,0.922,0.906
